US20090042988A1, “PHARMACEUTICAL COMPOSITIONS CONTAINING A MEGLITINIDE COMPOUND FOR PREVENTING HEPATIC FIBROSIS” (KURUME UNIVERSITY, priority 2006, published 2009)
Several values for one entry are separate records, joined by “and”; a condition that tells them apart may be missing. Identical values can stand only once. Entries after “also recorded” stand apart in the source; their conditions may differ.

Key:
liver biopsy tissues [1] = assay: Histological scoring of liver biopsy tissues (Brunt's scale) in NASH patients with diabetes given nateglinide;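 note: patients dosed orally with 90 mg thrice daily ahead of meals over 16 weeks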
Protocol: Meanwhile, the degree of hepatic fibrosis herein mentioned is evaluated by the steps comprising of treating the tissue section of liver biopsy samples with the method of specifically staining the fibrillary element such as Masson's trichrome stain, Sweet's reticulin stain or Azan stain; and then determining the quantity thereof per distinctive fibrosis images or evaluating them as stages. As one example, since hepatocellular necrosis or degeneration in NASH often occurs in areas of zone 3, the portal fibrosis is evaluated corresponding to the degree thereof on a scale of 0 to 4 when pericellular fibrosis, perivenular fibrosis or pathology of the region corresponding to the areas of zone 3 is advanced. Further, the degree is comprehensively classified as: Stage 1: perivascular/perisinusoidal/pericellular fibrosis partially or widely exists centering on zone 3; Stage 2: portal fibrosis partially or widely exists in addition to Stage 1; Stage 3: bridging fibrosis partially or widely exists; and Stage 4: cirrhosis.
Hepatocellular degeneration is determined as ballooning of hepatocytes after treating the section of liver biopsy tissues with hematoxylin-eosin staining. Hepatocellular degeneration is evaluated based on the number of the cells observed in the visual field (Non-patent Literature 11).

[2] = Diabetic indexes (HbA1c, fasting blood glucose, blood glucose 2 hours after glucose tolerance test) in NASH patients with diabetes given nateglinide; type: in vivo; conditions: per patient, Case 1-5
Protocol: In 0th week and 12th week or 16 week, as the diabetic indexes, the fasting blood glucose, the blood glucose 2 hours after the glucose tolerance test, and hemoglobin A1c, as the evaluation of the liver, the degree of fatty liver determined by liver/spleen ratio of CT and liver biopsy tissues for each case were histologically analyzed to score hepatocellular degeneration, pericellular fibrosis, perivenular fibrosis, portal fibrosis or the like (Brunt E M et al. Am J Gastroenterol. 1999 94: 2467-2474).

fatty liver = assay: Degree of fatty liver by liver/spleen ratio of CT in NASH patients with diabetes given nateglinide; type: in vivo
Source text: 5 patients were selected as the subjects, who had clinical features of fatty liver found by the abdominal ultrasound or the abdominal CT, had negative test results in various virus markers and autoantibody, could deny a drinking history or a drug history; were diagnosed as NASH by a liver biopsy based on Brunt's scale (Am J Gastroenterol. 1999 94: 2467-2474), and had diabetes on which diet and exercise therapies could not sufficiently produce the therapeutic effect. […] Am J Gastroenterol. 1999 94: 2467-2474).

[3] = twelve-week administration; 53 fatty liver cases with diabetes or 5 cases where GPT>GOT; cited from earlier work
liver biopsy tissues [4] = conditions: 16 weeks, 5 patients with diabetes diagnosed as NASH (Non-patent Literature 10); cited from earlier work
ATP-citrate lyase = conditions: nateglinide administered before glucose load; diabetic model animal; cited from earlier work
[5] = after nateglinide administration, Brunt score, per patient, Case 1-5
[6] = after nateglinide administration, score, per patient, Case 1-5
[7] = Δ: value before admin. − value after admin., per patient, Case 1-5
[8] = after nateglinide 90 mg orally three times per day (12th or 16th week)
[9] = Δ: value before admin. − value after admin., 0th and 12th weeks

CC(C)[C@H]1CC[C@H](C(=O)N[C@H](Cc2ccccc2)C(=O)O)CC1 [nateglinide, (−)-N-(trans-4-isopropylcyclohexanecarbonyl)-D-phenylalanine]
grade (liver biopsy tissues [1]; [5]): 1 (2×) and 2 (2×) and 1.5 | stage (liver biopsy tissues [1]; [5]): 2 (2×) and 1 (2×) and 1.5 | hepatocellular degeneration (liver biopsy tissues [1]; [6]): 1 (4×) and 2 | pericellular fibrosis (liver biopsy tissues [1]; [6]): 1 (4×) and 0 | perivenular fibrosis (liver biopsy tissues [1]; [6]): 1 (4×) and 2 | portal area neutrophil infiltration (liver biopsy tissues [1]; [6]): 0 (3×) and 1 (2×) | portal fibrosis (liver biopsy tissues [1]; [6]): 2 (2×) and 1 and 1.5 and 0.5 | portal vein inflammation (liver biopsy tissues [1]; [6]): 0 (4×) and 1 | improvement of fatty liver, hepatocellular degeneration, pericellular fibrosis, perivenular fibrosis or portal fibrosis (liver biopsy tissues [1]; cases whose diabetic indexes were improved by nateglinide): improvements were also observed | improvement of hepatocellular degeneration, pericellular fibrosis, perivenular fibrosis or portal fibrosis (liver biopsy tissues [1]; cases whose diabetic indexes were not improved (Cases 1 and 3)): hepatic inflammation, degeneration or fibrosis thereof was improved; also recorded: almost the same improvements were observed | Δ grade (liver biopsy tissues [1]; [7]): 1 (3×) and 0.5 and 0 | Δ hepatocellular degeneration (liver biopsy tissues [1]; [7]): 1 (3×) and 0 and 2 | Δ pericellular fibrosis (liver biopsy tissues [1]; [7]): 2 (2×) and 1 (3×) | Δ perivenular fibrosis (liver biopsy tissues [1]; [7]): 1 | Δ portal area neutrophil infiltration (liver biopsy tissues [1]; [7]): 0 (3×) and 1 (2×) | Δ portal fibrosis (liver biopsy tissues [1]; [7]): 1 (2×) and 0.5 (2×) and 0 | Δ portal vein inflammation (liver biopsy tissues [1]; [7]): 1 (4×) and 2 | Δ stage (liver biopsy tissues [1]; [7]): 1 (2×) and 0 (2×) and 0.5 | BG 2 hrs. (blood glucose 2 hours after the glucose tolerance test) [2, 8]: 199 mg/dL and 105 mg/dL and 238 mg/dL and 337 mg/dL and 118 mg/dL | fasting blood glucose [2, 8]: 106 mg/dL and 119 mg/dL and 115 mg/dL and 163 mg/dL and 100 mg/dL | HbA1c ([2]; after nateglinide 90 mg orally three times per day before each meal (12th or 16th week)): 5.5% and 5.6% and 6.2% and 7.1% and 5% | Δ BG 2 hrs. (blood glucose 2 hours after the glucose tolerance test) [2, 9]: 17 mg/dL and 89 mg/dL and 30 mg/dL and 88 mg/dL and 48 mg/dL | Δ HbA1c [2, 9]: 0.1% (2×) and −0.1% and 0.5% and 0.8% | Δ fasting blood glucose [2, 9]: 20 mg/dL and -6 mg/dL and -5 mg/dL and 7 mg/dL and 39 mg/dL | CT score liver/spleen ratio (fatty liver; after nateglinide administration, per patient, Case 1-5): 1 and 0.9 and 0.95 and 0.8 and 1.05 | improvement effect on fatty liver (fatty liver; cases whose diabetic indexes were not improved): an improvement effect on fatty liver was low | Δ CT score liver/spleen ratio (fatty liver; [7]): −0.09 and −0.335 and −0.06 and −0.2 and −0.25 | GOT and GPT (index of hepatic injury) [3]: statistically significantly inhibits GOT and GPT | fatty liver, hepatic inflammation, hepatic degeneration, hepatic fibrosis by liver biopsies before and after administration (liver biopsy tissues [4]): the fatty liver diminished, and hepatic inflammation, hepatic degeneration or hepatic fibrosis was improved | glucose-induced expression of ATP-citrate lyase in the liver (ATP-citrate lyase): inhibits glucose-induced expression of ATP-citrate lyase
